Laboratory results: US7531573B2 (priority 1994, dated 2009)
Read-outs that look alike come from different tables or passages of the source.

What was measured:
[1] = test system: NIH 3T3 mouse fibroblast cells; assay: Mitogen-induced cell proliferation; format: cell-based; conditions: for inhibition at 10 µM: NIH3T3, read-out: Mitogen-induced cell proliferation % Inhibition; for IC50: NIH3T3, read-out: Mitogen-induced cell proliferation IC50
Excerpt: Other cell lines, e.g., cancer cells, endothelial cells and fibroblasts, as well as many others, may be used in the cell proliferation assay. Selection of a particular cell line will depend in part on the desired application, and is well within the capabilities of an ordinarily skilled artisan.

[2] = target: Gardos channel of erythrocytes (Homo sapiens, UniProt O15554); assay: cell-based; conditions: for inhibition at 10 µM: read-out: Gardos Channel % Inhibition
[3] = erythrocytes, read-out: Gardos Channel IC50

Chain of Gardos channel of erythrocytes (O15554 whole entry): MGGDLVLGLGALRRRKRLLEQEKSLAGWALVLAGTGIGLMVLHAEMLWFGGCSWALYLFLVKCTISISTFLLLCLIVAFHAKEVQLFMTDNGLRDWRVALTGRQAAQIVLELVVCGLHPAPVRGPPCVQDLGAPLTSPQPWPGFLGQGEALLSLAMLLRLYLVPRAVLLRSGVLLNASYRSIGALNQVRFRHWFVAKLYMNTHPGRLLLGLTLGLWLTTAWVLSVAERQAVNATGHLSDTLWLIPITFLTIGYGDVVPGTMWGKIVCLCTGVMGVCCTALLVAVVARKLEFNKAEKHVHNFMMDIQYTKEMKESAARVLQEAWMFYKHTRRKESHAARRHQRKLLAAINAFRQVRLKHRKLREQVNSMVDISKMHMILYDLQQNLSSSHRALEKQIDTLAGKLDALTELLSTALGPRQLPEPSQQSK

SMILES	inhibition at 10 µM [1] [%]	IC50 [1] [nM]	IC50 [2, 3] [nM]	inhibition at 10 µM [2] [%]	IC50 [2] [nM]
NCCC(c1ccccc1)(c1ccccc1)c1ccccc1 [Compound 29]	99	3100	649	100	–
O=CCC(c1ccc(Cl)cc1)(c1ccc(Cl)cc1)c1ccc(Cl)cc1 [Compound 65]	99	1600	–	98	435
O=C1CC[C@@H](COC(c2ccccc2)(c2ccccc2)c2ccccc2)O1 [Compound 24]	29	–	135	97.9	–
NC(=O)C(c1ccccc1)(c1ccccc1)C1CCCCC1 [Compound 90, Cyclohexyl-diphenylacetamide]	86	3000	72	98.3	–
c1ccc(C(c2ccccc2)c2ccncc2)cc1 [Compound 4]	37.7	–	–	91	2860
OC(c1ccccc1)(c1ccccc1)c1ccccc1 [Compound 1]	–	–	–	97	755
COC(=O)c1ccc(C(O)(c2ccccc2)c2ccccc2)cc1 [Compound 62]	31	–	–	98	98
O=C(O)CC(c1ccc(Cl)cc1)(c1ccc(Cl)cc1)c1ccc(Cl)cc1 [Compound 39]	99	3300	1680	97	–
OC(c1ccccc1)(c1ccccc1)c1ccc(-c2ccccc2)cc1 [Compound 21]	99	2800	–	97.3	725
N#CCc1ccc([Si](c2ccccc2)(c2ccccc2)c2ccccc2)cc1 [Compound 71]	97	1100	–	0.4	–
SC(c1ccccc1)(c1ccccc1)c1ccccc1 [Compound 11]	52	2310	2160	99.2	–
c1ccc(C(c2ccccc2)c2ccccc2)cc1 [Compound 3]	53	–	–	86.6	1200
OCCC(c1ccccc1)(c1ccccc1)c1ccccc1 [Compound 22]	85	6800	–	82	302
NC(=O)CC(c1ccccc1)(c1ccccc1)c1ccccc1 [Compound 18]	76.1	10000	431	98	–
O=C(O)CNC(c1ccccc1)(c1ccccc1)c1ccccc1 [Compound 25]	70	–	–	34.4	–
CC(=O)CC(c1ccccc1)(c1ccccc1)c1ccccc1Cl [Compound 82, 4-(2-chlorophenyl)-4,4-diphenyl-2-butanone]	98	5000	27	99.5	–
COc1ccc(C(c2ccccc2)c2ccccc2Cl)cc1 (centres unmarked) [Compound 83]	80	6400	918	96.7	–
O=C(O)C(Cc1ccc2ccccc2c1)C(c1ccccc1)(c1ccccc1)c1ccccc1 (centres unmarked) [Compound 28]	99	700	5220	98	–
CCOC(=O)C(c1ccccc1)(c1ccccc1)N1CCCCC1 [Compound 87]	96	2200	68	99	–

SMILES	inhibition at 10 µM [1] [%]	IC50 [1] [nM]	IC50 [2, 3] [nM]	inhibition at 10 µM [2] [%]	IC50 [2] [nM]
NOC(c1ccccc1)(c1ccccc1)c1ccccc1 [Compound 34]	68	–	939	96.3	–
N#CC(c1ccccc1)(c1ccccc1)c1ccc([N+](=O)[O-])cc1Cl [Compound 49]	94	300	336	88	–
OC(c1ccccc1)(c1ccccc1)c1cccc2ccccc12 [Compound 61]	99	1600	–	85	2370
NC(=O)CCC(c1ccccc1)(c1ccccc1)c1ccccc1 [Compound 78]	72	–	220	95	–
O=C1CC[C@@H](COC(c2ccccc2)(c2ccccc2)c2ccccc2)N1 [Compound 23]	77	3800	216	97.9	–
Oc1ccc(C(c2ccccc2)c2ccccc2Cl)cc1 (centres unmarked) [Compound 85]	91	7000	739	98	–
BrC(c1ccccc1)(c1ccccc1)c1ccccc1 [Compound 12]	72.8	1700	–	99	252
CCOC(=O)CNC(c1ccccc1)(c1ccccc1)c1ccccc1 [Compound 57]	21	–	1510	89	–
OC(c1ccccc1)(c1ccccc1)c1ccccc1F [Compound 20]	39	–	–	98.1	795
N#CCCC(c1ccccc1)(c1ccccc1)c1ccccc1 [Compound 64, 4,4,4-triphenylbutronitrile]	63	5800	88	100	–
c1ccc(C(c2ccccc2)(c2ccccc2)[n+]2ccccc2)cc1 [Compound 7]	6.6	–	410	98.2	–
CC(=O)C(c1ccccc1)(c1ccccc1)c1ccccc1 [Compound 37]	31	–	57	100	–
O=C(O)CC(c1ccccc1)(c1ccccc1)c1ccccc1 [Compound 9]	32.7	–	–	77.2	21800
c1ccc(N(c2ccccc2)c2ccccc2)cc1 [Compound 8]	28.3	–	2850	95.6	–
CCOC(=O)C(C(=O)OCC)C(c1ccccc1)(c1ccccc1)c1ccccc1F [Compound 55]	5	–	58	98	–
N#CC(c1ccccc1)(c1ccccc1)c1ccc([N+](=O)[O-])cc1 [Compound 52]	93	1700	255	94	–
N#CC(c1ccccc1)(c1ccccc1)c1ccccc1 [Compound 13]	87	920	133	72.4	–
OC(c1ccccc1)(c1ccccc1)c1cccnc1 [Compound 63]	37	–	–	69	1020
COC(=O)CC(c1ccccc1)(c1ccccc1)c1ccccc1 [Compound 53]	74	–	101	98	–

SMILES	inhibition at 10 µM [1] [%]	IC50 [1] [nM]	IC50 [2, 3] [nM]	inhibition at 10 µM [2] [%]	IC50 [2] [nM]
CON(C)C(=O)CC(c1ccccc1)(c1ccccc1)c1ccccc1 [Compound 56]	99	3200	275	91	–
Fc1ccccc1C(c1ccccc1)c1ccccc1 [Compound 27]	99	3000	449	100	–
COC(=O)c1ccccc1C(c1ccccc1)c1ccccc1 [Compound 45]	99	800	320	98	–
OC(c1ccccc1)(c1ccccc1)c1ccc(C(F)(F)F)cc1 [Compound 68]	98	3100	–	97.5	236
N#CCC(c1ccccc1)(c1ccccc1)c1ccccc1 [Compound 19]	80	5800	1130	97	–
Nc1ccc(C(O)(c2ccc(N)cc2)c2ccc(N)cc2)cc1 [Compound 54]	99	200	–	17.4	–
O=C(O)CCC(c1ccccc1)(c1ccccc1)c1ccccc1 [Compound 74]	70	–	1400	97.5	–
Cc1ccc(C(c2cc(Cl)ccc2N)c2ccccc2Cl)cc1 (centres unmarked) [Compound 86]	99	2400	237 to 455	93.9	–
N#CC(c1ccccc1)(c1ccccc1)c1ccccc1Cl [Compound 14, (2-chlorophenyl)-diphenylacetonitrile]	95.8	2200	–	98.8	48
O=C(O)C(c1ccccc1)(c1ccccc1)c1ccccc1Cl [Compound 80]	62	–	206	97	–
OC(C#Cc1ccccc1)(c1ccccc1)c1ccccc1 [Compound 48]	98	400	–	100	1290
CCOC(c1ccccc1)(c1ccccc1)c1ccccc1 [Compound 46]	99	2200	76	99.5	–
Oc1ccccc1C(O)(c1ccccc1)c1ccccc1 [Compound 42]	99	3300	–	99	615
COC(c1ccccc1)(c1ccccc1)c1ccccc1 [Compound 51]	37	–	551	100	–
COc1ccc(C(O)(c2ccccc2)c2ccc(OC)cc2)cc1 [Compound 58]	99	–	–	99.6	247
c1ccc([Si](c2ccccc2)(c2ccccc2)c2cccs2)cc1 [Compound 76]	84	–	–	–	–
CON(C)C(=O)CC(c1ccc(Cl)cc1)(c1ccc(Cl)cc1)c1ccc(Cl)cc1 [Compound 40]	99	1000 to 1200	–	–	–
OCCC[CH2][Ge]([c]1ccccc1)([c]1ccccc1)[c]1ccccc1 [Compound 72]	–	–	–	–	1080
